Source: patent publication US6800638B2, “Tetrahydropyridine derivatives, their preparation and their use as cell proliferation inhibitors” (Hoffman-La Roche Inc., priority 2000, dated 2004)

Test system: HDAC
Experiment: HDAC inhibition assay with aminocoumarin derivative of omega-acetylated lysine as substrate
Assay type: biochemical
Settings: compound concentration 10 nM; protocol of Hoffmann et al. 1999
Protocol: To determine the HDAC inhibitory properties of the compounds of the invention an assay was performed using an aminocoumarin derivative of an omega-acetylated lysine as substrate for the enzyme. This assay has been described in detail by Hoffmann, K., et al., Nucleic Acids Res. 27 (1999) 2057-2058. Using the protocol described therein, the inhibitory effect of representative compounds was determined at a concentration of 10 nM.

Row | Structure (SMILES) | Inhibitory effect at 10 nM in %
1 | O=C(CCCCCCCN1CCc2ccccc2C1)NO [Example 1, 8-(3,4-Dihydro-1H-isoquinolin-2-yl)-octanoic acid hydroxyamide] | 54%
2 | CCOc1cc2c(cc1OCC)CN(CCCCCCCC(=O)NO)CC2 [Example 5, 8-(6,7-Diethoxy-3,4-dihydro-1H-isoquinolin-2-yl)-octanoic acid hydroxyamide] | 26%
3 | COc1cc2c(cc1OC)C(c1ccccc1)N(CCCCCCCC(=O)NO)CC2 (stereo not shown) [Example 6, 8-(6,7-dimethoxy-1-phenyl-3,4-dihydro-1H-isoquinolin-2-yl)-octanoic acid hydroxyamide] | 26%
4 | O=C(CCCCCCCN1CCc2c([nH]c3ccccc23)C1)NO [Example 7, 8-(1,3,4,9-tetrahydro-β-carbolin-2-yl)-octanoic acid hydroxyamide] | 26%
